Some test systems named below: Acinetobacter baumannii; Escherichia coli UB1005; Escherichia coli; Pseudomonas aeruginosa; Staphylococcus aureus; Bacillus cereus; Bacillus subtilis.
Holding throughout (experiment): ≥ marks a high value that may be exact or a test limit, other limits are often not marked, values filed in µg/mL are converted to µM
For assay [1], the system named is Escherichia coli ATCC 25922.
Assay [2] relates to Salmonella enterica subsp. enterica serovar Typhimurium C77-31.
Assay [3] concerns Staphylococcus aureus ATCC 25923.
For assay [4], the system named is Staphylococcus aureus ATCC 29213.
Assay [5] has as its system Staphylococcus epidermidis ATCC 12228.
The test system of assay [6] is Candida albicans ATCC 10231.
Assay [7] has as its system Pseudomonas aeruginosa ATCC 27853.
Assay [8] concerns Candida albicans ATCC 2002.
Assay [9] has as its system Klebsiella pneumoniae ATCC 700603.
Assay [10] concerns Pseudomonas aeruginosa ATCC 9027.

In brackets after ≈: the same amount, converted by molar mass.

In the case of `CC(C)[C@H](NC(=O)[C@H](CCCN=C(N)N)NC(=O)[C@H](Cc1c[nH]c2ccccc12)NC(=O)[C@H](CCCN=C(N)N)NC(=O)[C@@H](NC(=O)[C@H](CCCN=C(N)N)NC(=O)[C@H](Cc1c[nH]c2ccccc12)NC(=O)[C@H](CCCN=C(N)N)NC(=O)[C@@H](NC(=O)[C@H](CCCN=C(N)N)NC(=O)[C@@H](N)Cc1c[nH]c2ccccc12)C(C)C)C(C)C)C(=O)N[C@@H](CCCN=C(N)N)C(N)=O` [WRVRWRVRWRVR], the MIC in the assay with Acinetobacter baumannii came to 2 µM (≈ 3.62 µg/mL); in assay [1], 4 µM (≈ 7.24 µg/mL); with Escherichia coli UB1005, 2 µM (≈ 3.62 µg/mL); in the assay with Escherichia coli, 2 µM (≈ 3.62 µg/mL); against Pseudomonas aeruginosa, 4 µM (≈ 7.24 µg/mL); in assay [2], 4 µM (≈ 7.24 µg/mL). For the same molecule, the MIC in assay [3] is 2 µM (≈ 3.62 µg/mL); in assay [4] it was 1 µM (≈ 1.81 µg/mL); with Staphylococcus aureus, 1 µM (≈ 1.81 µg/mL); in assay [5] it was 2 µM (≈ 3.62 µg/mL).

In the case of `CC(C)C[C@H](NC(=O)[C@H](CCCCN)NC(=O)[C@@H]1CCCN1C(=O)[C@H](CC(C)C)NC(=O)[C@H](CC(C)C)NC(=O)CNC(=O)[C@H](CCCCN)NC(=O)[C@H](CC(C)C)NC(=O)[C@H](CCCCN)NC(=O)[C@@H]1CCCN1C(=O)[C@H](CC(C)C)NC(=O)[C@H](CC(C)C)NC(=O)[C@H](CC(C)C)NC(=O)[C@H](CCCCN)NC(=O)[C@H](CC(C)C)NC(=O)[C@H](CC(C)C)NC(=O)[C@H](CCCCN)NC(=O)[C@@H](N)Cc1ccc(O)cc1)C(N)=O` [YKLLKLLLPKLKGLLPKL], the MIC in assay [6] is 40 µM (≈ 83.6 µg/mL); in [7] it was 5.86 µM (≈ 12.2 µg/mL); in assay [4] it was 5.93 µM (≈ 12.4 µg/mL).

Regarding `CC[C@H](C)[C@H](NC(=O)[C@@H](NC(=O)[C@H](CS)NC(=O)[C@H](Cc1ccc(O)cc1)NC(=O)[C@@H](NC(=O)[C@H](C)NC(=O)[C@@H]1CCCN1C(=O)[C@H](Cc1ccccc1)NC(=O)[C@@H](NC(=O)[C@H](CCCCN)NC(=O)[C@H](CO)NC(=O)[C@H](C)NC(=O)[C@H](CC(C)C)NC(=O)[C@H](CCCCN)NC(=O)CNC(=O)[C@H](CC(C)C)NC(=O)[C@H](C)N)C(C)C)C(C)C)[C@@H](C)O)C(=O)N[C@@H](CO)C(=O)N[C@@H](CCCN=C(N)N)C(=O)N[C@@H](CCCCN)C(=O)O` [ALGKLASKVFPAVYCTISRK], the MIC was not below 119 µM against Bacillus cereus and 59.5 µM (≈ 128 µg/mL) against Escherichia coli.

For `CC[C@H](C)[C@H](NC(=O)[C@H](C)NC(=O)[C@H](CCCN=C(N)N)NC(=O)[C@H](Cc1ccc(O)cc1)NC(=O)[C@H](CC(C)C)NC(=O)[C@H](CC(N)=O)NC(=O)[C@H](Cc1ccc(O)cc1)NC(=O)CNC(=O)[C@H](C)NC(=O)[C@@H](NC(=O)[C@@H](NC(=O)[C@@H](NC(=O)[C@H](CCCN=C(N)N)NC(=O)[C@@H](NC(=O)[C@@H](NC(=O)[C@@H](NC(=O)[C@@H]1CCCN1C(=O)[C@H](Cc1c[nH]c2ccccc12)NC(=O)[C@@H](N)Cc1ccccc1)C(C)C)C(C)C)[C@@H](C)CC)[C@@H](C)O)C(C)C)C(C)C)C(=O)N[C@@H](CCCCN)C(=O)N[C@@H](CCCCN)C(=O)N[C@@H](CCCCN)C(=O)O` [FWPVVIRTVVAGYNLYRAIKKK], the minimal inhibitory concentration (MIC) in the assay with Bacillus subtilis was 1.34 µM (≈ 3.52 µg/mL); in assay [8] it was 0.335 µM (≈ 0.879 µg/mL); in [1], 10.7 µM (≈ 28.1 µg/mL); in assay [3] it was 0.447 µM (≈ 1.17 µg/mL).

With `CC[C@H](C)[C@H](NC(=O)[C@H](C)NC(=O)[C@H](CO)NC(=O)[C@H](Cc1ccccc1)NC(=O)[C@@H](NC(=O)[C@H](CO)NC(=O)[C@@H]1CCCN1C(=O)[C@@H](NC(=O)[C@@H](NC(=O)[C@H](CCCCN)NC(=O)[C@H](CO)NC(=O)[C@H](C)NC(=O)[C@@H](NC(=O)CNC(=O)[C@H](Cc1ccccc1)NC(=O)[C@@H](NC(=O)[C@H](C)NC(=O)CN)C(C)C)C(C)C)C(C)C)C(C)C)C(C)C)C(=O)N[C@@H](CCCCN)C(=O)N[C@@H](CCCCN)C(=O)O` [GAVFGVASKVVPSVFSAIKK], the MIC in the assay with Bacillus cereus was not below 129 µM; in the assay on Escherichia coli it was more than 129 µM.

In the case of `CC(C)C[C@H](NC(=O)[C@H](CCCCN)NC(=O)[C@H](CCC(=O)O)NC(=O)[C@H](CC(C)C)NC(=O)[C@H](CC(C)C)NC(=O)[C@H](C)NC(=O)[C@H](CCCCN)NC(=O)[C@H](CC(C)C)NC(=O)[C@H](CCCCN)NC(=O)[C@H](CC(C)C)NC(=O)[C@H](CC(C)C)NC(=O)[C@H](CC(C)C)NC(=O)[C@H](Cc1c[nH]c2ccccc12)NC(=O)[C@H](CCCCN)NC(=O)[C@H](CC(C)C)NC(=O)[C@H](CC(C)C)NC(=O)[C@H](CCCCN)NC(=O)[C@@H](N)Cc1ccc(O)cc1)C(N)=O` [YKLLKWLLLKLKALLEKL], the MIC in assay [6] is more than 76.3 µM; in assay [7] it was 28.6 µM (≈ 63.6 µg/mL); in assay [4], 38.1 µM (≈ 84.8 µg/mL).

As to `CC[C@H](C)[C@H](N)C(=O)N[C@H](C(=O)N[C@@H](CCCCN)C(=O)N[C@@H](Cc1c[nH]c2ccccc12)C(=O)N[C@@H](CC(C)C)C(=O)N[C@@H](CC(C)C)C(=O)N[C@@H](CC(N)=O)C(=O)N[C@@H](C)C(=O)N[C@H](C(=O)N[C@@H](CCCCN)C(=O)N[C@@H](CCCCN)C(=O)NCC(=O)N[C@@H](Cc1ccccc1)C(=O)N[C@@H](CCCCN)C(=O)N[C@@H](CC(C)C)C(=O)O)[C@@H](C)CC)[C@@H](C)O` [ITKWLLNAIKKGFKL], the MIC in the assay on Acinetobacter baumannii is not below 32 µM; in assay [1], 64 µM (≈ 113 µg/mL); in assay [9] it was 64 µM (≈ 113 µg/mL); in [10], 64 µM (≈ 113 µg/mL); in assay [3], 64 µM (≈ 113 µg/mL).

`CC(C)C[C@H](NC(=O)[C@H](CCCCN)NC(=O)[C@H](Cc1ccccc1)NC(=O)[C@@H](NC(=O)[C@@H](NC(=O)CNC(=O)[C@H](CC(C)C)NC(=O)[C@@H](N)Cc1ccccc1)C(C)C)C(C)C)C(=O)N[C@H](C(=O)N[C@@H](CO)C(=O)N[C@@H](CCCCN)C(=O)N[C@H](C(=O)N[C@@H](Cc1ccccc1)C(=O)N1CCC[C@H]1C(=O)N[C@@H](C)C(=O)N[C@H](C(=O)N[C@@H](Cc1ccccc1)C(=O)NCC(=O)N[C@@H](CCCCN)C(=O)N[C@H](C(=O)O)C(C)C)C(C)C)C(C)C)C(C)C` [FLGVVFKLVSKVFPAVFGKV]: the minimum inhibitory concentration (MIC) with Bacillus cereus came to 7.33 µM (≈ 16 µg/mL); against Escherichia coli it was 117 µM (≈ 256 µg/mL); in the assay on Staphylococcus aureus it was 3.67 µM (≈ 8 µg/mL).

Turning to `CC(C)C[C@H](NC(=O)CNC(=O)[C@H](Cc1ccccc1)NC(=O)[C@H](CC(C)C)NC(=O)[C@H](C)NC(=O)CN)C(=O)N[C@@H](C)C(=O)N[C@@H](CO)C(=O)N[C@@H](CCCCN)C(=O)N[C@H](C(=O)N[C@@H](Cc1ccccc1)C(=O)N1CCC[C@H]1C(=O)N[C@@H](C)C(=O)N[C@H](C(=O)N[C@@H](Cc1ccccc1)C(=O)NCC(=O)N[C@@H](C)C(=O)N[C@@H](Cc1ccccc1)C(=O)N[C@@H](CCCCN)C(=O)N[C@@H](CCCCN)C(=O)O)C(C)C)C(C)C` [GALFGLASKVFPAVFGAFKK], the minimal inhibitory concentration (MIC) against Bacillus cereus is not below 125 µM; against Escherichia coli it was 125 µM (≈ 256 µg/mL).

`CC[C@H](C)[C@H](NC(=O)[C@H](CC(=O)O)NC(=O)[C@H](CCCCN)NC(=O)[C@@H](NC(=O)[C@H](CC(C)C)NC(=O)[C@H](CO)NC(=O)[C@H](CCSC)NC(=O)[C@H](CC(C)C)NC(=O)CN)C(C)C)C(=O)N[C@@H](C)C(=O)N[C@@H](CCCCN)C(=O)N[C@@H](CC(C)C)C(=O)N[C@@H](C)C(=O)N[C@@H](C)C(=O)N[C@@H](CCCCN)C(=O)N[C@@H](CCC(N)=O)C(=O)NCC(=O)N[C@@H](C)C(=O)N[C@@H](CCCCN)C(=O)N[C@@H](CCC(N)=O)C(=O)O` [GLMSLVKDIAKLAAKQGAKQ]: the minimal inhibitory concentration (MIC) with Bacillus cereus was not below 124 µM; against Escherichia coli, 124 µM (≈ 256 µg/mL).

As for `CC[C@H](C)[C@H](NC(=O)[C@H](CC(C)C)NC(=O)CNC(=O)[C@@H](NC(=O)[C@@H](NC(=O)[C@H](C)NC(=O)[C@@H]1CCCN1C(=O)[C@@H](NC(=O)[C@@H](NC(=O)[C@H](CCCCN)NC(=O)[C@H](CO)NC(=O)[C@H](C)NC(=O)[C@H](CC(C)C)NC(=O)[C@H](CO)NC(=O)[C@H](Cc1ccccc1)NC(=O)[C@H](CC(C)C)NC(=O)[C@H](C)NC(=O)CN)C(C)C)C(C)C)C(C)C)[C@@H](C)CC)C(=O)N[C@@H](CCCCN)C(=O)N[C@@H](CCCCN)C(=O)O` [GALFSLASKVVPAVIGLIKK], the minimal inhibitory concentration (MIC) with Bacillus cereus is not below 127 µM; with Escherichia coli, more than 127 µM.

For `CSCC[C@H](NC(=O)[C@H](CC(C)C)NC(=O)[C@H](CCCCN)NC(=O)CNC(=O)[C@H](C)NC(=O)[C@H](C)NC(=O)[C@H](CCCN=C(N)N)NC(=O)[C@H](Cc1ccccc1)NC(=O)[C@H](CC(C)C)NC(=O)[C@@H](NC(=O)[C@H](Cc1c[nH]c2ccccc12)NC(=O)[C@@H](NC(=O)[C@@H](N)CCCCN)C(C)C)[C@@H](C)O)C(=O)N[C@@H](C)C(=O)N[C@@H](CCCCN)C(N)=O` [KVWTLFRAAGKLMAK], the MIC in the assay on Acinetobacter baumannii was 25 µM (≈ 43 µg/mL); in assay [1], more than 25 µM; in assay [9], more than 25 µM; in assay [10] it was more than 25 µM; in assay [3] it was more than 25 µM.

The values are drawn from DBAASP.
